Assay results published in patent US6967196B1, “Sulfonamide compounds and uses thereof” (Bristol-Myers Squibb Company, priority 1999, dated 2005).
pIC50: −log10 of the molar value. Where a name gives a salt, the structure may show the parent alone. Read-outs that look alike come from different tables or passages of the source. Values belong to the compound of their own block, whether it stands above or below them.

Tested on: amyloid β production in transfected H4 (human neuroglioma) cells stably expressing APP constructs
Assay: In vitro cell-based assay of inhibitors of amyloid β production (ELISA)
Details: amyloid β in medium by ELISA, read-out: ACTIVITY (IC50, inhibition of amyloid β production)
Summary of the method: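 Cells expressing wild-type or variant APP were plated ≥6 h before medium was replaced with compound-containing medium (initial screen 10-100 μM) and incubated ~16 h. Secreted Aβ in medium was quantified by sandwich ELISA (C-terminal-specific mouse monoclonal capture, N-terminal rabbit polyclonal detection) against an Aβ standard curve.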

[1] = Homo sapiens, 16 h, transfected H4 cells stably expressing APP, approximately 16 hours incubation
[2] = transfected H4 cells stably expressing APP, approx. 16 h incubation
[3] = transfected H4 cells stably expressing APP constructs, approximately 16 hours incubation

Compound: Cc1cccc(C(=O)NCCCOc2ccccc2C(C)N(c2cc(F)ccc2F)S(=O)(=O)c2ccc(Cl)cc2)c1 (stereo not drawn) [Example 687]
pIC50 [2]: 6.30 to 7.00

Compound: O=S(=O)(c1ccc(Cl)cc1)N(Cc1ccccc1OCCCN1CCCCCC1)c1ccccc1 [Example 851, N-{2-[3-(1-azepanyl)propoxy]benzyl}-4-chloro-N-phenylbenzenesulfonamide hydrochloride]
pIC50 [1]: 6.30 to 7.00

Compound: 2-((1R)-1-{[(4-chlorophenyl)sulfonyl]-2,5-difluoroanilino}ethyl)benzyl cyclohexylcarbamate [Example 675]
pIC50 [2]: 6.30 to 7.00

Compound: C[C@H](CCCCN1CCC(CS(C)(=O)=O)CC1)N(c1cc(Cl)ccc1Cl)S(=O)(=O)c1ccc(Cl)cc1 [Example 1150, 4-chloro-N-(2,5-dichlorophenyl)-N-[5-[[4-(methylsulfonyl)methyl]-1-piperidinyl]-1(R)-methylpentyl]benzenesulfonamide]
pIC50 [3]: 6.30 to 7.00

Compound: CC(C)Oc1c(NCC[C@@H](C)N(c2cc(Cl)ccc2F)S(=O)(=O)c2ccc(Cl)cc2)c(=O)c1=O [Example 1127, 4-chloro-N-(5-chloro-2-fluorophenyl)-N-[3-(2-isopropoxy-3,4-dioxo-1-cyclobutenyl)amine-1(R)-methylpropyl]benzenesulfonamide]
pIC50 [3]: 7.00 to 7.30

Compound: C[C@H](c1ccccc1CCC(=O)NCc1ccco1)N(c1cc(F)ccc1F)S(=O)(=O)c1ccc(Cl)cc1 [Example 404, 3-[2-((1R)-1-{[(4-chlorophenyl)sulfonyl]-2,5-difluoroanilino}ethyl)phenyl]-N-(2-furylmethyl)propanamide]
pIC50 (Homo sapiens, 16 h, transfected H4 cells stably expressing APP, approximately 16 hours incubation, Table B): 7.00 to 7.30

Compound: COC(=O)CCS(=O)(=O)CCc1cc(F)ccc1[C@@H](C)N(c1cc(F)ccc1F)S(=O)(=O)c1ccc(Cl)cc1 [Example 474, Methyl 3-({2-[2-((1R)-1-{[(4-chlorophenyl)sulfonyl]-2,5-difluoroanilino}ethyl)-5-fluorophenyl]ethyl}sulfonyl)propanoate]
pIC50 (transfected H4 cells stably expressing APP, approximately 16 hours incubation, Table B): 6.30 to 7.00

Compound: [2-((1R)-1-{[(4-chlorophenyl)sulfonyl]-2,5-difluoroanilino}ethyl)-5-fluorophenyl]methanesulfonic acid [Example 1009]
pIC50 (transfected H4 cells stably expressing APP, approximately 16 hours incubation): < 6.30

Compound: CC(C)C[S+]([O-])CCC[C@@H](C)N(c1cc(Cl)ccc1Cl)S(=O)(=O)c1ccc(Cl)cc1 (stereo partly drawn) [Example 1182]
pIC50 [3]: ≥ 7.60

Second part, the compound after the results:

pIC50 (Homo sapiens, 16 h, transfected H4 cells stably expressing APP constructs, approximately 16 hours incubation): ≥ 7.60
Compound: C[C@H](CCCS(=O)(=O)N1CCCC1)N(c1cc(Cl)ccc1F)S(=O)(=O)c1ccc(Cl)cc1 [Example 1205, 4-chloro-N-(5-chloro-2-fluorophenyl)-N-[4-[(1-pyrrolidinyl)sulfonyl]-1(R)-methylbutyl]benzenesulfonamide]

pIC50 [1]: < 6.30
Compound: CCSCCCc1cc(F)ccc1[C@@H](C)N(c1cc(F)ccc1F)S(=O)(=O)c1ccc(SCC)cc1 [Example 936, N-(2,5-difluorophenyl)-4-(ethylsulfanyl)-N-((1R)-1-{2-[3-(ethylsulfanyl)propyl]-4-fluorophenyl}ethyl)benzenesulfonamide]

pIC50 [1]: < 6.30
Compound: O=C(c1ccc2c(c1)OCO2)N1CCCCC1CCOc1ccccc1CN(c1cc(F)ccc1F)S(=O)(=O)c1ccc(Cl)cc1 (stereo not drawn) [Example 921, N-(2-{2-[1-(1,3-benzodioxol-5-ylcarbonyl)-2-piperidinyl]ethoxy}benzyl)-4-chloro-N-(2,5-difluorophenyl)benzenesulfonamide]

pIC50 (Homo sapiens, 16 h, transfected H4 cells expressing APP, approximately 16 hours incubation): < 6.30
Compound: CCN(CCNC(=O)[C@@H](C)N(c1cc(Cl)ccc1F)S(=O)(=O)c1ccc(Cl)cc1)c1cccc(C)c1 [Example 1315]

pIC50 [1]: 6.30 to 7.00
Compound: O=C(/C=C\c1ccccc1)N1CCCCC1CCOc1ccccc1CN(c1cc(F)ccc1F)S(=O)(=O)c1ccc(Cl)cc1 (stereo not drawn) [Example 832, 4-chloro-N-(2,5-difluorophenyl)-N-[2-(2-{1-[(2Z)-3-phenyl-2-propenoyl]-2-piperidinyl}ethoxy)benzyl]benzenesulfonamide]

pIC50 [1]: < 6.30
Compound: O=S(=O)(c1ccc(Cl)cc1)N(Cc1ccccc1C#CCCN1CCCCC1)c1ccccc1 [Example 973, 4-chloro-N-phenyl-N-{2-[4-(1-piperidinyl)-1-butynyl]benzyl}benzenesulfonamide]
